Assay results taken from patent publication US10005767B2, “Compositions and methods for inhibition of the JAK pathway” (Rigel Pharmaceuticals, Inc., priority 2009, dated 2018).
Read-outs that look alike come from different tables or passages of the source.

Tested on: human primary T-cells, IL-2 stimulated proliferation (JAK-1 and JAK-3 dependent; reported as JAK3 activity)
Assay: Human primary T-cell proliferation stimulated by IL-2 (Example 3)
Format: cell-based
Details: tested under conditions described in Example 3 (IL-2 stimulated human primary T-cell proliferation), read-out: ability to inhibit JAK3 activity, IC50 range (Table V)
In short: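 Peripheral-blood human T-cells pre-activated via TCR/CD28, IL-2-starved overnight, then cultured 72 h at 37 °C with compound in Yssel's medium containing IL-2 (80 U/mL in cell suspension). Proliferation read as viable-cell ATP by CellTiter-Glo luminescence; reduction versus control taken as JAK pathway inhibition.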

Compound	IC50 [nM]	IC50 (Homo sapiens, T-cell) [nM]
Cc1cnc(Nc2ccc(C(=O)N3CCN(C)CC3)cc2)nc1Nc1ccc2oc(=O)[nH]c2c1 [Compound I-322, 5-methyl-N2-[4-(4-methylpiperazin-1-yl)carbonyl]phenyl-N4-(2-oxo-2,3-dihydro-1,3-benzoxazol-5-yl)-2,4-pyrimidinediamine]	< 500	
Cc1cnc(Nc2ccc(N(C)[C@@H]3CCCN(Cc4ccccc4)C3)nc2)nc1Nc1ccc2oc(=O)[nH]c2c1 [II-106, (R)-5-(2-(6-((1-benzylpiperidin-3-yl)(methyl)amino)pyridin-3-ylamino)-5-methylpyrimidin-4-ylamino)benzo[d]oxazol-2(3H)-one]		< 500
COc1cc(Nc2ncc(C)c(Nc3ccc4oc(=O)[nH]c4c3)n2)cc(C(F)(F)F)c1OC [Compound I-485, N2-(3,4-dimethoxy-5-trifluoromethyl)phenyl-5-methyl-N4-(2-oxo-2,3-dihydro-1,3-benzoxazol-5-yl)-2,4-pyrimidinediamine]	< 500	
Cc1cnc(Nc2ccc(C)c(C)c2F)nc1Nc1ccc2oc(=O)[nH]c2c1 [Compound I-493, N2-(3,4-dimethyl-2-fluoro)phenyl-5-methyl-N4-(2-oxo-2,3-dihydro-1,3-benzoxazol-5-yl)-2,4-pyrimidinediamine]	< 500	
Cc1cnc(Nc2ccc(Cl)c(F)c2)nc1Nc1ccc2oc(=O)[nH]c2c1 [Compound I-400, N2-(4-chloro-3-fluoro)phenyl-5-methyl-N4-(2-oxo-2,3-dihydro-1,3-benzoxazol-5-yl)-2,4-pyrimidinediamine]	< 500	
COc1cc(Nc2ncc(C)c(Nc3ccc4oc(=O)[nH]c4c3)n2)cc(C(C)N2CCCC2)c1 (stereo not shown) [Compound I-234, 5-(2-(3-methoxy-5-(1-(pyrrolidin-1-yl)ethyl)phenylamino)-5-methylpyrimidin-4-ylamino)benzo[d]oxazol-2(3H)-one]		< 500
Cc1cnc(Nc2ccc(O)c(Cl)c2)nc1Nc1ccc2oc(=O)[nH]c2c1 [Compound I-424, 5-[2-(3-Chloro-4-hydroxy-phenylamino)-5-methyl-pyrimidin-4-ylamino]-3H-benzooxazol-2-one]		< 500
Cc1cc(Nc2ncc(C)c(Nc3ccc4oc(=O)[nH]c4c3)n2)ccc1OC(C)(C)C(N)=O [Compound I-391, N2-[4-(1-aminocarbonyl-1-methyl)ethoxy-3-methyl]phenyl-5-methyl-N4-(2-oxo-2,3-dihydro-1,3-benzoxazol-5-yl)-2,4-pyrimidinediamine]	< 500	
Cc1cnc(Nc2cccc(S(C)(=O)=O)c2)nc1Nc1ccc2oc(=O)n(C(C)C)c2c1 [Compound I-9, N4-(3-isopropylbenzo[d]oxazol-2(3H)-on-5-yl)-N2-((3-methylsulfonyl)phenyl)-5-methylpyrimidine-2,4-diamine]	< 500	
CS(=O)(=O)c1ccc(Nc2ncc(F)c(Nc3ccc4oc(=O)[nH]c4c3)n2)cc1 [Compound I-21]	< 500	
CCOc1ccc(Nc2ncc(C)c(Nc3ccc4oc(=O)[nH]c4c3)n2)cc1Cl [Compound I-194, 5-[2-(3-Chloro-4-ethoxy-phenylamino)-5-methyl-pyrimidin-4-ylamino]-3H-benzooxazol-2-one]		< 500
CCOc1ccc(Nc2ncc(C)c(Nc3ccc4oc(=O)[nH]c4c3)n2)cc1C(F)(F)F [Compound I-168, 5-[2-(4-Ethoxy-3-trifluoromethyl-phenylamino)-5-methyl-pyrimidin-4-ylamino]-3H-benzooxazol-2-one]		500 to 5000
O=c1[nH]c2cc(Nc3nc(Nc4cccc(S(=O)(=O)N5CCOCC5)c4)ncc3F)ccc2o1 [Compound I-31, N4-(benzo[d]oxazol-2(3H)-on-5-yl)-N2-(3-(morpholinosulfonyl)phenyl)-5-fluoropyrimidine-2,4-diamine]		< 500
CCN1CCN(c2ccc(Nc3ncc(C)c(Nc4ccc5oc(=O)[nH]c5c4)n3)cc2C(F)(F)F)CC1 [Compound I-110, N4-(benzoxazolin-2-on-5-yl)-N2-[3-trifluoromethyl-4-(4-ethylpiperazin-1-yl)phenyl]-5-methylpyrimidine-2,4-diamine]		< 500
COc1ccc(Nc2ncc(C)c(Nc3ccc4oc(=O)[nH]c4c3)n2)cc1C(=O)N1CCOCC1 [Compound I-262, 5-(2-(4-methoxy-3-(morpholine-4-carbonyl)phenylamino)-5-methylpyrimidin-4-ylamino)benzo[d]oxazol-2(3H)-one]		< 500
Cc1cnc(Nc2cc(F)c(F)c(F)c2F)nc1Nc1ccc2oc(=O)[nH]c2c1 [Compound I-477, 5-[5-Methyl-2-(2,3,4,5-tetrafluoro-phenylamino)-pyrimidin-4-ylamino]-3H-benzooxazol-2-one]		500 to 5000
Cc1cnc(Nc2cc(Cl)cc(OC(F)F)c2)nc1Nc1ccc2oc(=O)[nH]c2c1 [Compound I-495, N2-(3-chloro-5-difluoromethoxy)phenyl-5-methyl-N4-(2-oxo-2,3-dihydro-1,3-benzoxazol-5-yl)-2,4-pyrimidinediamine]	< 500	

Compound	IC50 [nM]	IC50 (Homo sapiens, T-cell) [nM]
Cc1cnc(Nc2ccc(OCC(C)C)cc2)nc1Nc1ccc2oc(=O)[nH]c2c1 [Compound I-196, 5-[2-(4-Isobutoxy-phenylamino)-5-methyl-pyrimidin-4-ylamino]-3H-benzooxazol-2-one]		< 500
Cc1cnc(Nc2ccc(C(=O)Nc3ccccc3)cc2)nc1Nc1ccc2oc(=O)[nH]c2c1 [Compound I-135, 4-[5-Methyl-4-(2-oxo-2,3-dihydro-benzooxazol-5-ylamino)-pyrimidin-2-ylamino]-N-phenyl-benzamide]		< 500
Cc1cnc(Nc2cccc(S(=O)(=O)C(F)(F)F)c2)nc1Nc1ccc2oc(=O)[nH]c2c1 [Compound I-118, N4-(benzo[d]oxazol-2(3H)-on-5-yl)-N2-(3-trifluoromethylsulfonyl)phenyl-5-methylpyrimidine-2,4-diamine]	< 500	
Cc1cnc(Nc2cccc(C(C)N3CCOCC3)c2)nc1Nc1ccc2oc(=O)[nH]c2c1 (stereo not shown) [Compound I-217, 5-(5-methyl-2-(3-(1-morpholinoethyl)phenylamino)pyrimidin-4-ylamino)benzo[d]oxazol-2(3H)-one]		< 500
CCCN1Cc2ccc(Nc3ncc(C)c(Nc4ccc5oc(=O)[nH]c5c4)n3)cc2C1 [III-6, N4-(benzo[d]oxazol-2(3H)-on-5-yl)-N2-(2-n-propylisoindolin-5-yl)-5-methylpyrimidine-2,4-diamine]		< 500
Cc1cnc(Nc2cc(F)cc(F)c2)nc1Nc1ccc2oc(=O)[nH]c2c1 [Compound I-359, N2-(3,5-difluoro)phenyl-5-methyl-N4-(2-oxo-2,3-dihydro-1,3-benzoxazol-5-yl)-2,4-pyrimidinediamine]	< 500	
Cc1cnc(Nc2cccc(S(C)(=O)=O)c2)nc1Nc1ccc2c(c1)oc(=O)n2C [Compound I-65, N2-((3-methylsulfonyl)phenyl)-N4-(3-methyl-2-oxo-2,3-dihydrobenzo[d]oxazol-6-yl)-5-methylpyrimidine-2,4-diamine]	< 500	
Cc1cnc(Nc2cc(C)c(OC(C)(C)C(N)=O)c(C)c2)nc1Nc1ccc2oc(=O)[nH]c2c1 [Compound I-389, N2-[4-(1-aminocarbonyl-1-methyl)ethoxy-3,5-dimethyl]phenyl-5-methyl-N4-(2-oxo-2,3-dihydro-1,3-benzoxazol-5-yl)-2,4-pyrimidinediamine]	< 500	
Cc1cccc(Nc2ncc(C)c(Nc3ccc4oc(=O)[nH]c4c3)n2)c1 [Compound I-403, 5-(5-Methyl-2-m-tolylamino-pyrimidin-4-ylamino)-3H-benzooxazol-2-one]		< 500
C=C1C[C@@H](O)CN1c1ccc(Nc2ncc(C)c(Nc3ccc4oc(=O)[nH]c4c3)n2)cn1 [II-126, N2-[2-(4R-hydroxy-2-methylidene-pyrrolidin-1-yl)pyridin-5-yl]-5-methyl-N4-(2-oxo-2,3-dihydro-1,3-benzoxazol-5-yl)-2,4-pyrimidinediamine]		500 to 5000
Cc1cc(Nc2ncc(C)c(Nc3ccc4oc(=O)[nH]c4c3)n2)ccc1N1CC2(C)CN(C)CC(C)(C1)C2 [Compound I-5, N4-(benzo[d]oxazol-2(3H)-on-5-yl)-N2-(3-methyl-4-(1,5,7-trimethyl-3,7-diazabicyclo[3.3.1]nonan-3-yl)phenyl)-5-methylpyrimidine-2,4-diamine]		500 to 5000
Cc1ccccc1Nc1ncc(C)c(Nc2ccc3oc(=O)[nH]c3c2)n1 [Compound I-499, 5-(2-(o-toluidino)-5-methylpyrimidin-4-ylamino)benzo[d]oxazol-2(3H)-one]		500 to 5000
Cc1cnc(Nc2ccc3onc(C)c3c2)nc1Nc1ccc2oc(=O)[nH]c2c1 [IV-9, N4-(benzo[d]oxazol-2(3H)-on-5-yl)-N2-(3-methyl-1,2-benzisoxazol-5-yl)-5-methylpyrimidine-2,4-diamine]		< 500
Cc1cnc(Nc2cnc(N3CC4CN(CC5CC5)CC4C3)c(F)c2)nc1Nc1ccc2oc(=O)[nH]c2c1 (stereo not shown) [II-52, 5-{2-[6-(5-Cyclopropylmethyl-hexahydro-pyrrolo[3,4-c]pyrrol-2-yl)-5-fluoro-pyridin-3-ylamino]-5-methyl-pyrimidin-4-ylamino}-3H-benzooxazol-2-one]		< 500
Cc1cnc(Nc2ccc(Br)c(C(F)(F)F)c2)nc1Nc1ccc2oc(=O)[nH]c2c1 [Compound I-188, 5-[2-(4-Bromo-3-trifluoromethyl-phenylamino)-5-methyl-pyrimidin-4-ylamino]-3H-benzooxazol-2-one]		< 500
Cc1cnc(Nc2ccc(OC(C)(C)C(N)=O)nc2)nc1Nc1ccc2oc(=O)[nH]c2c1 [II-146, N2-[2-(1-aminocarbonyl-1-methyl)ethoxypyridin-5-yl]-5-methyl-N4-(2-oxo-2,3-dihydro-1,3-benzoxazol-5-yl)-2,4-pyrimidinediamine]	< 500	
Cc1cnc(Nc2cc(F)cc(N3CCOCC3)c2)nc1Nc1ccc2oc(=O)[nH]c2c1 [Compound I-240, 5-(2-(3-fluoro-5-morpholinophenylamino)-5-methylpyrimidin-4-ylamino)benzo[d]oxazol-2(3H)-one]		< 500
